Experimental data reported in patent US20120065228A1, “COMPOSITIONS AND METHODS FOR TREATING, CONTROLLING, REDUCING, OR AMELIORATING OCULAR INFLAMMATORY WITH LOWER RISK OF INCREASED INTRAOCULAR PRESSURE” (priority 2007, published 2012).
Values joined by “and” are separate entries in the source; they are usually repeats but may differ in a detail not shown here. Equal values may be shown once.

How the values were obtained:
Type in all cases: in vivo
[1] = system: intraocular pressure (IOP) in New Zealand White rabbits; test: Intraocular pressure in New Zealand White rabbits, topical dosing four times daily
Experimental: On Days 1-31, animals received daily topical doses of the appropriate test article into the right eye. Animals were dosed four times per day, with doses administered 2 hours apart. Doses were administered using a calibrated 50-μL pipette. The eyelids were held close for 10 seconds immediately following dosing. The time of each dose administration was recorded.
Intraocular pressure (“IOP”) was determined for both eyes of each animal on Days 3, 5, 10, 12, 16, 18, 22, 24, 26, 30, and 32. LOP was evaluated with a Medtronic Solan, Model 30 classic pneumatonometer. Proparacaine hydrochloride 0.5% (1 drop) was delivered to each eye prior to IOP measurement. IOP was measured on Monday, Wednesday, and Friday of each week. A two-point diurnal curve was established: IOP was recorded at 8 a.m. and 12 p.m. on Day 3, and at 8 a.m. and 2 p.m. on later days, with a ±1 hour range for each of these times. The time of the measurements was recorded.
Descriptive statistics were prepared for IOP data of each treatment group (left and right eyes separately) at each measurement interval. The statistics included the number of observations (“N”), mean, standard deviation (“STD”), and standard error (“SEM”). Statistical analyses were conducted on IOP results using Statistical Analysis Systems (SAS Institute, Inc., Cary, N.C., V8.0). Parameters were evaluated using analysis of variance/GLM Procedure followed by Tukey's Standardized Range Test (Tukey, 1985) for post hoc comparisons of group means. The level of significance was set at a probability of p<0.05 for all statistical procedures. Group IOP means were compared at each interval, with left and right eyes compared separately.
IOP data for the following six animals were excluded from group statistics: Group A, Nos. 3081, 3037, 3068, and 3011; Group C, No. 3034; and Group E, No. 3084.

rabbit eye = test: Clinical evaluation by slit lamp (clinical score), rabbit paracentesis model; set-up: key to Clinical Score −180 min / Clinical Score −5 min / Clinical Score +115 min: 0: normal; 1: discrete dilatation of iris and conjunctival vessels; 2: moderate dilatation of iris and conjunctival vessels; 3: intense iridal hyperemia with flare in the anterior chamber; 4: intense iridal hyperemia with flare in the anterior chamber and presence of fibrinous exudates; conditions: for Clinical Score −5 min: 5 min before the first paracentesis; for Clinical Score −5 min / Clinical Score +115 min / Clinical Score −180 min: individual eyes; for Clinical Score +115 min: 5 min before the second paracentesis; for Clinical Score −180 min: basal
leukocytes (PMN) = test: Leukocytes (PMN) measurement in aqueous humor, rabbit paracentesis model; conditions: second paracentesis; for PMN in aqueous humor: individual eyes, listed as BOL
Experimental: Each rabbit was placed in a restraint device and tagged with the alphanumeric code. The formulations were instilled (50 μl) into the conjunctival sac of both eyes 180, 120, 90 and 30 min before the first paracentesis; then 15, 30, 90 min after the first paracentesis. To perform the first paracentesis the animals were anaesthetized by intravenous injection of 5 mg/kg Zoletil® (Virbac; 2.5 mg/kg tiletamine HCl and 2.5 mg/kg zolazepam HCl) and one drop of local anesthetic (Novesina®, Novartis) was administered to the eye. Anterior chamber paracentesis was performed with a 26 G needle attached to a tuberculin syringe; the needle was introduced into the anterior chamber through the cornea, taking care not to damage the tissues. Two hours after the ® first paracentesis, the animals were sacrificed with 0.4 ml Tanax® (Intervet International B.V.) and the second paracentesis was performed. About 100 μl of aqueous humor were removed at the second paracentesis. Aqueous humor was immediately split in four aliquots and stored at −80° C. until analysis. Then both eyes were enucleated and the iris-ciliary body was carefully excised, placed in polypropylene tubes, and stored at −80° C. until analysis.
For the determination of the number of leukocytes we used a haemocytometer (Improved Neubauer Chamber; Bright-line. Hausser Scientific) and a Polyvar 2 microscope (Reichert-Jung).
Pupillary diameter, PGE2, protein, PMN, and MPO were expressed as mean±SEM. Statistical analysis was performed using one way ANOVA followed by a Newman-Keuls post hoc test. Clinical score was expressed as % of eyes and the statistical analysis was performed using Kruskal-Wallis followed by a Dunn post hoc test. P<0.05 was considered statistically significant in both cases. Prism 4 software (GraphPad Software, Inc.) was used for the analysis and graphs.

[2] = 0.1% topical formulation, +115 min, 8 eyes
[3] = 0.5% topical formulation, +115 min, 8 eyes

Cc1ccc2c(NCC(O)(CC(C)(C)c3cc(F)cc4c3OCC4)C(F)(F)F)cccc2n1 (centres unmarked) [BOL-303242-X]
Intraocular Pressure, MEAN ([1]; treated right eyes, A.M. readings, Day 26, 5 mg/g (Group C)): 22.1 mmHg | Intraocular Pressure, MEAN ([1]; treated right eyes, A.M. readings, Day 26, 10 mg/g (Group B)): 21.8 mmHg | Intraocular Pressure, MEAN ([1]; treated right eyes, A.M. readings, Day 30, 1 mg/g (Group D)): 24.2 mmHg | Intraocular Pressure, MEAN ([1]; treated right eyes, A.M. readings, Day 30, 5 mg/g (Group C)): 22.9 mmHg | Intraocular Pressure, MEAN ([1]; treated right eyes, A.M. readings, Day 30, 10 mg/g (Group B)): 22.7 mmHg | Intraocular Pressure, MEAN ([1]; treated right eyes, A.M. readings, Day 32, 1 mg/g (Group D)): 24.9 mmHg | Intraocular Pressure, MEAN ([1]; treated right eyes, A.M. readings, Day 32, 5 mg/g (Group C)): 23.4 mmHg | Intraocular Pressure, MEAN ([1]; treated right eyes, A.M. readings, Day 32, 10 mg/g (Group B)): 23.9 mmHg | Intraocular Pressure, MEAN ([1]; treated right eyes, A.M. readings, Pre-Study, 1 mg/g (Group D)): 24.4 mmHg | Intraocular Pressure, MEAN ([1]; treated right eyes, A.M. readings, Pre-Study, 5 mg/g (Group C)): 24.8 mmHg | Intraocular Pressure, MEAN ([1]; treated right eyes, A.M. readings, Pre-Study, 10 mg/g (Group B)): 24.0 mmHg | Intraocular Pressure, MEAN ([1]; untreated left eyes, P.M. readings, Day 3, 1 mg/g (Group D)): 25.0 mmHg | Intraocular Pressure, MEAN ([1]; untreated left eyes, P.M. readings, Day 3, 5 mg/g (Group C)): 23.9 mmHg | Intraocular Pressure, MEAN ([1]; untreated left eyes, P.M. readings, Day 3, 10 mg/g (Group B)): 23.3 mmHg | Intraocular Pressure, MEAN ([1]; untreated left eyes, P.M. readings, Day 5, 1 mg/g (Group D)): 24.7 mmHg | Intraocular Pressure, MEAN ([1]; untreated left eyes, P.M. readings, Day 5, 5 mg/g (Group C)): 24.8 mmHg | Intraocular Pressure, MEAN ([1]; untreated left eyes, P.M. readings, Day 5, 10 mg/g (Group B)): 25.2 mmHg | Intraocular Pressure, MEAN ([1]; untreated left eyes, P.M. readings, Day 10, 1 mg/g (Group D)): 24.9 mmHg | Intraocular Pressure, MEAN ([1]; untreated left eyes, P.M. readings, Day 10, 5 mg/g (Group C)): 24.6 mmHg | Intraocular Pressure, MEAN ([1]; untreated left eyes, P.M. readings, Day 10, 10 mg/g (Group B)): 23.5 mmHg | Intraocular Pressure, MEAN ([1]; untreated left eyes, P.M. readings, Day 12, 1 mg/g (Group D)): 23.7 mmHg | Intraocular Pressure, MEAN ([1]; untreated left eyes, P.M. readings, Day 12, 5 mg/g (Group C)): 23.3 mmHg | Intraocular Pressure, MEAN ([1]; untreated left eyes, P.M. readings, Day 12, 10 mg/g (Group B)): 24.1 mmHg | Intraocular Pressure, MEAN ([1]; untreated left eyes, P.M. readings, Day 16, 1 mg/g (Group D)): 21.9 mmHg | Intraocular Pressure, MEAN ([1]; untreated left eyes, P.M. readings, Day 16, 5 mg/g (Group C)): 20.4 mmHg | Intraocular Pressure, MEAN ([1]; untreated left eyes, P.M. readings, Day 16, 10 mg/g (Group B)): 21.4 mmHg | Intraocular Pressure, MEAN ([1]; untreated left eyes, P.M. readings, Day 18, 1 mg/g (Group D)): 22.7 mmHg | Intraocular Pressure, MEAN ([1]; untreated left eyes, P.M. readings, Day 18, 5 mg/g (Group C)): 21.9 mmHg | Intraocular Pressure, MEAN ([1]; untreated left eyes, P.M. readings, Day 18, 10 mg/g (Group B)): 22.1 mmHg | Intraocular Pressure, MEAN ([1]; untreated left eyes, P.M. readings, Day 22, 1 mg/g (Group D)): 22.1 mmHg | Intraocular Pressure, MEAN ([1]; untreated left eyes, P.M. readings, Day 22, 5 mg/g (Group C)): 22.1 mmHg | Intraocular Pressure, MEAN ([1]; untreated left eyes, P.M. readings, Day 22, 10 mg/g (Group B)): 22.6 mmHg | Intraocular Pressure, MEAN ([1]; untreated left eyes, P.M. readings, Day 24, 1 mg/g (Group D)): 22.9 mmHg | Intraocular Pressure, MEAN ([1]; untreated left eyes, P.M. readings, Day 24, 5 mg/g (Group C)): 22.2 mmHg | Intraocular Pressure, MEAN ([1]; untreated left eyes, P.M. readings, Day 24, 10 mg/g (Group B)): 22.8 mmHg | Intraocular Pressure, MEAN ([1]; untreated left eyes, P.M. readings, Day 26, 1 mg/g (Group D)): 22.1 mmHg | Intraocular Pressure, MEAN ([1]; untreated left eyes, P.M. readings, Day 26, 5 mg/g (Group C)): 22.3 mmHg | Intraocular Pressure, MEAN ([1]; untreated left eyes, P.M. readings, Day 26, 10 mg/g (Group B)): 21.4 mmHg | Intraocular Pressure, MEAN ([1]; untreated left eyes, P.M. readings, Day 30, 10 mg/g (Group B)): 21.7 mmHg | Clinical Score −5 min (rabbit eye; 0.1% topical formulation): 0 | Clinical Score +115 min (rabbit eye; 0.1% topical formulation, listed as BOL): 2 (6×) and 3 (2×) | Clinical score as percentage of eyes, Score (%) 2 (rabbit eye; [2]): 75% | Clinical score as percentage of eyes, Score (%) 3 (rabbit eye; [2]): 25% | Clinical Score −180 min (rabbit eye; 0.1% topical formulation): 0 | Clinical score as percentage of eyes, Score (%) 0 (rabbit eye; 0.1% topical formulation, −5 min, 8 eyes): 100% | Clinical score as percentage of eyes, Score (%) 0 (rabbit eye; 0.1% topical formulation, −180 min (basal), 8 eyes): 100% | Clinical Score −5 min (rabbit eye; 0.5% topical formulation): 0 | Clinical Score +115 min (rabbit eye; 0.5% topical formulation, listed as BOL): 2 (5×) and 1 (3×) | Clinical score as percentage of eyes, Score (%) 1 (rabbit eye; [3]): 37.5% | Clinical score as percentage of eyes, Score (%) 2 (rabbit eye; [3]): 62.5% | Clinical Score −180 min (rabbit eye; 0.5% topical formulation): 0 | Clinical score as percentage of eyes, Score (%) 0 (rabbit eye; 0.5% topical formulation, −5 min, 8 eyes): 100% | Clinical score as percentage of eyes, Score (%) 0 (rabbit eye; 0.5% topical formulation, −180 min (basal), 8 eyes): 100% | Clinical Score −5 min (rabbit eye; 1% topical formulation): 0 | Clinical Score +115 min (rabbit eye; 1% topical formulation): 2 | Clinical score as percentage of eyes, Score (%) 2 (rabbit eye; 1% topical formulation, +115 min, 8 eyes): 100% | Clinical Score −180 min (rabbit eye; 1% topical formulation): 0 | Clinical score as percentage of eyes, Score (%) 0 (rabbit eye; 1% topical formulation, −5 min, 8 eyes): 100% | Clinical score as percentage of eyes, Score (%) 0 (rabbit eye; 1% topical formulation, −180 min (basal), 8 eyes): 100% | PMN in aqueous humor, Mean (leukocytes (PMN); 0.1% topical formulation): 28.333 number/μl | PMN in aqueous humor (leukocytes (PMN); 0.1% topical formulation): 20 number/μl (4×) and 40 number/μl and 50 number/μl | PMN in aqueous humor, Mean (leukocytes (PMN); 0.5% topical formulation): 21.250 number/μl | PMN in aqueous humor (leukocytes (PMN); 0.5% topical formulation): 40 number/μl (2×) and 20 number/μl (3×) and 10 number/μl (3×) | PMN in aqueous humor, Mean (leukocytes (PMN); 1% topical formulation): 28.750 number/μl | PMN in aqueous humor (leukocytes (PMN); 1% topical formulation): 30 number/μl (3×) and 20 number/μl (3×) and 40 number/μl (2×)
